Measured values reported in US7425410B2, “Methods for diagnosing a bipolar disorder and unipolar disorder” (Free State Diagnostics, LLC, priority 2003, dated 2008).

Assays:
[1] = tested on: lymphoblasts; experiment: Rate of drop in membrane potential (repolarization rate) in lymphoblasts; assay type: cell-based, human
Procedure: As the Na^+K^+ ATPase density on the cell surface increases, the intracellular sodium concentration decreases and the membrane potential begins to drop as a result of repolarization of the cell membrane. The rate of drop in membrane potential (repolarization rate) in affected cells incubated for 30 minutes in both K^+-free buffer and in K^+-containing (regular) buffer in the presence or absence of 30 μM ethacrynate was compared to that of unaffected cells incubated for 30 minutes in both K^+-free buffer and in K^+-containing buffer in the presence or absence of 30 μM ethacrynate. The difference in the median values between the two groups was greater than would be expected by chance.
The rate of drop in membrane potential after incubation with the protein kinase C (PKC) activator, phorbol 12-myristate 13-acetate (PMA), was compared in affected cells to that of unaffected cells. The membrane potential of these cells was determined by measuring the fluorescence intensity as described above. The rate of drop in membrane potential (repolarization rate) in affected cells was compared to that in unaffected cells in K^+-free buffer in the presence or absence of 2 μM PMA. The difference in the median values between the two groups was greater than would be expected by chance.
The rate of drop in membrane potential (repolarization rate) in affected cells incubated for 30 minutes in both K^+-free buffer and in K^+-containing (regular) buffer in the presence or absence of 2 μM PMA was compared to that of unaffected cells incubated for 30 minutes in both K^+-free buffer and in K^+-containing buffer in the presence or absence of 2 μM PMA. The difference in the median values between the two groups was greater than would be expected by chance.

[2] = tested on: whole blood cells; experiment: Open clinical trial: fluorescence intensity ratio of whole blood cells; assay type: cell-based, human
Procedure: A pilot clinical trial was conducted using blood samples from 12 clinically affected bipolar patients and 11 unaffected controls. The medical histories of the patients were known to the investigator measuring the membrane potentials; therefore, the trials described in this example were open trials. The patients ranged from 19 years to 77 years in age, and included males and females from different ethnic groups. Similarly, the controls ranged from 25 to 67 including males and females from different ethnic groups. The patients were all hospitalized following a confirmed manic episode. During the drawing of samples, all patients were on mood stabilizers, either lithium or valproate.
Because the volume of blood required to collect enough lymphocytes was beyond that permitted by the current protocol, the membrane potential of whole blood cells was determined. The volume of whole blood required was approximately 1 ml. The blood samples were kept on ice until they were stored at 4° C. All of the samples were tested within 48 hours.
Whole blood samples drawn from patients and controls were suspended in K^+-containing buffer without ethacrynate and in K^+-free buffer with 30 μM ethacrynate or with 100 mM sorbitol. The fluorescent dye DiOC6(3) was added to both suspensions and incubated for 30 minutes. The cell suspensions loaded with the dye were centrifuged, drained and resuspended in the respective buffers. The fluorescence intensity was measured for 10 seconds and the ratio of the intensity in K^+-free buffer to the intensity in K^+-containing buffer was calculated.

[3] = tested on: whole blood cells; experiment: Blind clinical trial and individual patient diagnosis: fluorescence intensity ratio of whole blood cells; assay type: cell-based, human; conditions: 30 μM ethacrynate
Procedure: A clinical trial was conducted using blood samples from the following four groups: schizophrenic, bipolar, and unipolar patients, as well as controls. The medical histories of these patients were unknown to the investigator measuring the membrane potentials; therefore, the trials described in this example were blind trials. The sample size was determined to be 5 with a power of 0.9, an alpha of 0.05, a difference in mean of 0.08, and a standard deviation of 0.03. However, more than 10 samples for each category were tested for a total sample size of 59. If a patient matched a diagnosis, structured clinical interviews according to DSM-IV guidelines were performed.
Whole blood samples drawn from patients and controls were suspended both in K^+-containing buffer and in K^+-free buffer with 30 μM ethacrynate or with 100 μM sorbitol. The fluorescent dye DiOC6(3) was added to both suspensions and incubated for 30 minutes. The cell suspensions loaded with the dye were centrifuged, drained and resuspended in the respective buffers. The fluorescence intensity was measured for 10 seconds and the ratio of the intensity in K^+-free buffer to the intensity in K^+-containing buffer was calculated.
An individual patient's cell sample was tested as described herein and six to twelve ratios were calculated. These values were treated as a group and compared with a normal control group (negative control) and a bipolar group (positive control).

[4] = tested on: lymphoblasts; experiment: Membrane potential of lymphoblasts by DiOC6(3) fluorescence intensity ratio; assay type: cell-based, human
Procedure: Three groups of immortalized lymphoblast samples were obtained from the Human Genetic Mutant Cell Repository (Coriell Institute for Medical Research, Camden N.J.). The samples are shown in Table 4 below and included six from affected (bipolar I disorder) patients (A1 through A6), six from their siblings (S1 through S6), and six from unrelated normal control subjects matched by age and sex (N1 through N6).
The cells were grown at 37° C. in RPMI 1640 culture medium (GIBCO, Life Technologies, Gaithersburg, Md., USA) with 15% fetal bovine serum and 1% penicillin.
The membrane potentials of the bipolar I cells shown in Table 4 above (as well as in all other experiments, except where indicated) were measured using the following protocol. The cells cultured in the media described above were centrifuged at 210 g for 5 minutes at room temperature, then suspended in 3 ml of K^+-containing stock buffer (5 mM KCl, 4 mM NaHCO3, 5 mM HEPES, 134 mM NaCl, 2.3 mM CaCl2, and 5 mM glucose). The cells were counted and the desired number of cells were again suspended in the K^+-containing buffer. The membrane potentials were measured using 3,3′-dihexyloxacarbocyanine iodide DiOC6(3), a cell-permeant, voltage sensitive, green-fluorescent dye (Molecular Probes Inc. Eugene, Oreg. USA). The cells were preincubated for 30 minutes before measurements. The preincubated cell suspension was centrifuged at 210 g for 5 minutes and the cells were resuspended in the K^+-containing buffer without the dye in the buffer.
A fluorescence spectrometer (F2500 Hitachi, Japan) was used for the measurement of the membrane potential by measuring the fluorescence intensity of DiOC6(3), which is directly proportional to the membrane potential. The intensity of fluorescence was measured at an excitation wavelength of 488 nm and an output wavelength of 540 nm. The time of recordings varied from 10 seconds to 1500 seconds depending upon the experiment.
Membrane potential was expressed according to fluorescence intensity using the following equation: I=CV, wherein I is the fluorescence intensity of a lipophilic fluorescent dye DiOC6(3) being only one example of such a dye); V is the voltage or membrane potential; and C is a constant that can vary depending on a number of factors such as, but not limited to, temperature, lamp intensity, number of cells, concentration of the fluorescent dye, incubation time, and lipid composition of cells used. By using the ratio of the fluorescence intensity (I1) of one sample of cells to the fluorescence intensity (I2) of another sample of cells, the constant (C) could be canceled out
Membrane potentials were also measured in K^+-free buffer to enable comparison with membrane potentials in K^+-containing buffer. As used herein, K^+-free buffer contains all of the components of the K^+-containing buffer, except potassium (4 mM NaHCO3, 5 mM HEPES, 134 mM NaCl, 2.3 mM CaCl2, and 5 mM glucose). Constant volumes of samples of each cell line were added to an equal volume of buffer containing an equal volume of dye. […] Each variable was constant for each cell line in both buffers, so that the ratio of intensities was a true ratio-metric measurement.
The relative fluorescence intensity ratio of cells in K^+-free buffer was compared to that of cells in K^+-containing buffer with or without 30 μM ethacrynate. […] The membrane potential of these cells was determined by measuring the fluorescence intensity as described above. […]

[5] = antibiotic ionophore; cited from earlier work
[6] = Bipolars, 30 μM ethacrynate, whole blood
[7] = Controls, 30 μM ethacrynate, whole blood
[8] = blind trial, Bipolars, whole blood
[9] = blind trial, Controls, whole blood
[10] = blind trial, Schizophr., whole blood
[11] = blind trial, Unipolars, whole blood

CCCCCCCCCCCCCC(=O)O[C@@H]1[C@@H](C)[C@@]2(O)[C@@H](C=C(CO)C[C@]3(O)C(=O)C(C)=C[C@@H]23)[C@@H]2C(C)(C)[C@]12OC(C)=O [PMA, phorbol 12-myristate 13-acetate]
relative ratio of repolarization rates in affected cells compared to unaffected cells ([1]; 2 μM PMA, 30 min, K+-free and K+-containing buffer, P=0.046): significantly lower
repolarization rate (with PMA/without PMA) in affected cells compared to unaffected cells ([1]; K+-free buffer, 2 μM PMA, t-test P=0.029): significantly different

C=C(CC)C(=O)c1ccc(OCC(=O)O)c(Cl)c1Cl [ethacrynate]
relative rate of repolarization in affected cells compared to unaffected cells ([1]; 30 μM ethacrynate, 30 min, K+-free and K+-containing buffer, P=0.041): significantly higher
mean fluorescence intensity ratio of bipolar samples compared to control samples ([2]; 30 μM ethacrynate, t-test): significantly lower
ratio of fluorescence intensity in K+-free buffer with ethacrynate to K+-containing buffer without ethacrynate, Mean [2, 6]: 0.780
ratio of fluorescence intensity in K+-free buffer with ethacrynate to K+-containing buffer without ethacrynate, Median [2, 6]: 0.778
ratio of fluorescence intensity in K+-free buffer with ethacrynate to K+-containing buffer without ethacrynate, Mean [2, 7]: 0.893
ratio of fluorescence intensity in K+-free buffer with ethacrynate to K+-containing buffer without ethacrynate, Median [2, 7]: 0.893
ratio of fluorescence intensity in K+-free buffer with ethacrynate to K+-containing buffer without ethacrynate, Mean ([3]; Patient A): 0.766
ratio of fluorescence intensity in K+-free buffer with ethacrynate to K+-containing buffer without ethacrynate, Median ([3]; Patient A): 0.763
fluorescence intensity ratio of bipolar samples compared to the other three groups ([3]; blind trial, ANOVA): significantly lower
fluorescence intensity ratio of unipolar samples compared to the other three groups ([3]; blind trial, ANOVA): significantly higher
ratio of fluorescence intensity in K+-free buffer with ethacrynate to K+-containing buffer without ethacrynate, Mean [3, 8]: 0.768
ratio of fluorescence intensity in K+-free buffer with ethacrynate to K+-containing buffer without ethacrynate, Median [3, 8]: 0.773
ratio of fluorescence intensity in K+-free buffer with ethacrynate to K+-containing buffer without ethacrynate, Mean [3, 9]: 0.850
ratio of fluorescence intensity in K+-free buffer with ethacrynate to K+-containing buffer without ethacrynate, Median [3, 9]: 0.850
ratio of fluorescence intensity in K+-free buffer with ethacrynate to K+-containing buffer without ethacrynate, Mean [3, 10]: 0.870
ratio of fluorescence intensity in K+-free buffer with ethacrynate to K+-containing buffer without ethacrynate, Median [3, 10]: 0.863
ratio of fluorescence intensity in K+-free buffer with ethacrynate to K+-containing buffer without ethacrynate, Mean [3, 11]: 0.898
ratio of fluorescence intensity in K+-free buffer with ethacrynate to K+-containing buffer without ethacrynate, Median [3, 11]: 0.901
relative intensity ratio of affected cells compared to unaffected cells ([4]; 30 μM ethacrynate, 30 min, K+-free vs K+-containing buffer, t-test P=0.009): significantly higher
intensity ratio (membrane potential with ethacrynate/without ethacrynate) of affected cells compared to unaffected cells ([4]; K+-free buffer, 30 μM ethacrynate, t-test P=0.032): significantly higher
relative intensity ratio, mean (intensity ratio with/without ethacrynate in K+-free buffer divided by that in K+-containing buffer) ([4]; affected (bipolar I) cells, 30 μM ethacrynate, 30 min): approximately 1.04
relative intensity ratio, mean (intensity ratio with/without ethacrynate in K+-free buffer divided by that in K+-containing buffer) ([4]; unaffected (sibling and normal) cells, 30 μM ethacrynate, 30 min): approximately 0.79

CC[C@@]1([C@@H]2O[C@@H]([C@H]3O[C@@](O)(CO)[C@H](C)C[C@@H]3C)C[C@@H]2C)CC[C@H]([C@]2(C)CC[C@]3(C[C@H](O)[C@@H](C)[C@@H]([C@@H](C)[C@@H](OC)[C@H](C)C(=O)O)O3)O2)O1 [monensin]
intensity ratio (membrane potential with monensin/without monensin) of affected cells compared to unaffected cells ([4]; K+-free buffer, 10 μM monensin, 30 min, t-test P=0.009): significantly lower
preference for Na+ over K+ [5]: 10 fold

OC[C@@H](O)[C@@H](O)[C@H](O)[C@@H](O)CO [sorbitol]
fluorescence intensity ratios of bipolar cells with sorbitol compared to ethacrynate ([2]; bipolar patients, 100 mM sorbitol in K+-free buffer, whole blood): comparable
